Columns and labels:
[1] = tested on: VEGF (DNA, G4) CGGGGCGGGCCTTGGGCGGGGT; test: CD melting at 265 nm; conditions: K+ (50 mM potassium phosphate); 50 mM potassium phosphate pH 7.0; 1.5 µM DNA, 3.0 µM compound; printed ≧
[2] = tested on: c-myc120 (DNA, G4) GAGGTATTTCGGGAGGTTTCGCCCCACGCCCTCTGCTTTGGGAACCCGGGAGGGGCGCTTATGGTGAGGGTGGGGAGGGTGGGGAAGGGGGAGGAGAGCGGTATTCGTGGTGTTCGGAGT; test: pulldown on streptavidin magnetic beads, qPCR; conditions: K+ (50 mM potassium phosphate); 50 mM potassium phosphate pH 7.0, room temperature; immobilised compound; more than 50% recovery
[3] = tested on: c-myc (DNA, G4) TGAGGGTGGGTAGGGTGGGTAA; test: ITC; conditions: K+ (50 mM potassium phosphate); 50 mM KH2PO4-K2HPO4 pH 7.0, 25 °C; abstract misprints exponent as 10^-6
[4] = tested on: c-myc (DNA, G4) TGAGGGTGGGTAGGGTGGGTAA; test: CD melting at 265 nm; conditions: K+ (50 mM potassium phosphate); 50 mM potassium phosphate pH 7.0; 1.5 µM DNA, 3.0 µM compound; printed ≧; printed Tms differ by 6.6
[5] = tested on: TA-core (DNA, G4) TAGGGTTAGGGTTAGGGTTAGGG; test: ITC; conditions: K+ (50 mM potassium phosphate); 50 mM KH2PO4-K2HPO4 pH 7.0, 25 °C
[6] = tested on: dsoligo (12-ss(-)/12-ss(+)) (DNA, duplex) GCGAAACCTCCC/GGGAGGTTTCGC; test: UV melting at 260 nm; conditions: K+ (50 mM potassium phosphate); 50 mM potassium phosphate pH 7.0; 1.5 µM DNA, 3.0 µM compound
[7] = tested on: VEGF (DNA, G4) CGGGGCGGGCCTTGGGCGGGGT; test: ITC; conditions: K+ (50 mM potassium phosphate); 50 mM KH2PO4-K2HPO4 pH 7.0, 25 °C
[8] = tested on: c-myc-mut95 (DNA, single strand) GAGGTATTTCGGGAGGTTTCGCCACCTTCTTCACTCTCTTCACTCTCTTCATAAGCGCCCCTCCCGGGTTCCCCGGTATTCGTGGTGTTCGGAGT; test: pulldown on streptavidin magnetic beads, qPCR; conditions: K+ (50 mM potassium phosphate); 50 mM potassium phosphate pH 7.0, room temperature; immobilised compound; 2 fmol DNA
[9] = tested on: TA-core (DNA, G4) TAGGGTTAGGGTTAGGGTTAGGG; test: CD melting at 265 nm; conditions: K+ (50 mM potassium phosphate); 50 mM potassium phosphate pH 7.0; 1.5 µM DNA, 3.0 µM compound
[10] = tested on: dsoligo (12-ss(-)/12-ss(+)) (DNA, duplex) GCGAAACCTCCC/GGGAGGTTTCGC; test: pulldown on streptavidin magnetic beads, gel electrophoresis; conditions: K+ (50 mM potassium phosphate); 5 µM compound, 5 µM DNA, pH 7.0, room temperature
[11] = tested on: c-kit (DNA, G4) AGGGAGGGCGCTGGGAGGAGGG; test: ITC; conditions: K+ (50 mM potassium phosphate); 50 mM KH2PO4-K2HPO4 pH 7.0, 25 °C
[12] = tested on: c-myc (DNA, G4) TGAGGGTGGGTAGGGTGGGTAA; test: absorption titration (383 nm, Stootman fit); conditions: K+ (50 mM potassium phosphate); 50 mM KH2PO4-K2HPO4 pH 7.0; 8 µM compound
[13] = tested on: c-myc (DNA, G4) TGAGGGTGGGTAGGGTGGGTAA; test: pulldown on streptavidin magnetic beads, gel electrophoresis; conditions: K+ (50 mM potassium phosphate); 5 µM compound, 5 µM DNA, pH 7.0, room temperature

CN1CCCNC(=O)CC[C@H](NC(=O)CCOCCOCCOCCOCCNC(=O)CCCC[C@@H]2SC[C@@H]3NC(=O)N[C@@H]32)C(=O)NCCCN(C)CCCN2C(=O)c3ccc4c5c(ccc(c35)C2=O)C(=O)N(CCC1)C4=O
ΔTm [1]: > 7.0 °C | binding [2]: yes | K [3]: 3.9e+06 M⁻¹ | ΔTm [4]: > 5.4 °C | K [5]: 2.1e+06 M⁻¹ | ΔTm [6]: 0.1 °C | K [7]: 820000 M⁻¹ | binding [8]: no | ΔTm [9]: 4.8 °C | binding [10]: no | K [11]: 200000 M⁻¹ | K [12]: 8.9e+06 M⁻¹ | binding [13]: yes
